Results from US20120088803A1, “CONTROL AGENT FOR SOFT ROT AND CONTROL METHOD FOR THE SAME” (Ishihara Sangyo Kaisha, Ltd, priority 2009, published 2012).
Several values for one entry are separate records, joined by “and”; a condition that tells them apart may be missing. Equal values may be shown once.

Tested on: Chinese cabbage soft rot
Assay: Test for disease control of Chinese cabbage, field (Example 2)
Format: in vivo, Erwinia carotovora
Design: key to Disease incidence rate: % of examined plants that are diseased; key to Disease control value: (1 − severity treated/severity untreated) × 100; key to Disease severity: Σ(diseased plants per class × index 0-4)/(plants × 4) × 100
Conditions: 250 g ai/10 a, 50 days
Text: (Disease incidence rate)=[(number of diseased plants)/(number of plants examined)]*100
(Disease severity)={S [(number of diseased plants in each class into which the plants are classified according to the degree of disease)*(disease index)]/[(number of plants examined)*4]}*100
(Disease control value)={1-[(Disease severity in treated plot)/(Disease severity in untreated plot)]}*100
Incidentally, the evaluation criteria for the disease index are as follows. • (Disease index) • 0: No lesion • 1: Lesions appear only in part of outer leaves (shipment can be made). • 2: Lesions appear in outer leaves and part of head leaves (the damaged part is removed and shipment as a small size plant can be made, rated Grade B). • 3: Lesions appear in most head leaves or more (shipment cannot be made). • 4: Lesions appear in the entire plant and the plant dies.
Preparation was performed using 500 g/L of • 3-chloro-N-(3-chloro-5-trifluoromethyl-2-pyridyl)-alpha,alpha,alpha-trifluoro-2,6-dinit ro-p-toluidine (fluazinam, Frowncide SC (trade name), manufactured by Ishihara Sangyo Kaisha, Ltd.) such that the amount of the active ingredient was 250 g ai/10 a (500 mL product/10 a), and the amount of dilution water was 150 L/10 a.
A mulch-sheet for agricultural use was spreaded on soil, and planting holes for settlement (diameter: about 5 cm) were made, and then, the spray solution prepared in the above was sprayed onto the planting holes such that the spraying amount was 0.25 g/m^2 (150 L/10 a), followed by air-drying. Then, seedlings of Chinese cabbage (cultivar: Yumebuki) grown for 4 weeks in a cell tray (128 holes/nursery box) were planted such that 34 to 40 seedlings were planted in one test plot having an area of 4.8 m^2 with three replications.
The degree of disease incidence was examined for all the plants in each test plot 50 days after the start of the test, and the disease severity and the disease control value were evaluated. Incidentally, the disease severity and the disease control value were obtained in the same manner as described above.

[1] = 150 L/10 a onto planting holes, Yumebuki, Average of replications

## O=[N+]([O-])c1cc(C(F)(F)F)c(Cl)c([N+](=O)[O-])c1Nc1ncc(C(F)(F)F)cc1Cl [Fluazinam, 3-chloro-N-(3-chloro-5-trifluoromethyl-2-pyridyl)-alpha,alpha,alpha-trifluoro-2,6-dinit ro-p-toluidine]
[1]
  Disease incidence rate: 45.4
  Disease severity: 16.4
150 L/10 a onto planting holes, Yumebuki, single replications I-III
  Disease severity: 19.4 and 13.1 and 16.7
150 L/10 a onto planting holes, Yumebuki, vs untreated plot
  Disease control value: 66.4
150 L/10 a sprayed onto planting holes of mulch-sheet, cultivar Yumebuki, single replications I-III
  Disease incidence rate: 55.0 and 37.5 and 43.6
